Data published in paper PMC7614687, “Modulation of the substrate specificity of the kinase PDK1 by distinct conformations of the full-length protein*” (Science signaling, 2023).
One block for each molecule: values may come before it. No end group written: not given here. *: point of attachment. Biotin = O=C1N[C@H]2[C@H](CS[C@H]2CCCCC(=O)*)N1

Tests used:
PDK1 [1] = test system: PDK1; design: method as in PMID 20051961; details: read-out: IC50, in vitro inhibitor of PDK1; cited from earlier work
PDK1_50-359 = target: T1, PDK1_50-359 (Homo sapiens, UniProt O15530); test: Differential scanning fluorimetry, thermal stability of PDK1_50-359 (catalytic domain); format: binding
T1 construct: His (N); made in house; host or cells: insect cells (stated for the crystallography batch)
T1 sequence (O15530 50-359): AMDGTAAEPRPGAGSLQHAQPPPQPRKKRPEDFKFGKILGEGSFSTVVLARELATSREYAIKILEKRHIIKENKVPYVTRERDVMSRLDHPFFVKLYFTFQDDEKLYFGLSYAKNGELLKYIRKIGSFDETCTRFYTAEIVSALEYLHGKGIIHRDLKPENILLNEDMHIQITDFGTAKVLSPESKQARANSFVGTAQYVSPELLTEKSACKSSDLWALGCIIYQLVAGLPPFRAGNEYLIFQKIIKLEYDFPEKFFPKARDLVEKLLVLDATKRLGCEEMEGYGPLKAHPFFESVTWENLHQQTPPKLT
Procedure: (§1) The thermal stability of PDK1 was assessed by monitoring the unfolding of PDK1 by the increase in the fluorescence of SYPRO Orange (Invitrogen) using a real-time PCR device (StepOnePlus, Applied Biosystems and BioRad CFX96) following a previously described protocol ([70]). The reactions were performed in a final volume of 10 μl in white 96-well PCR microtiter plates (Greiner) and contained 1 μM PDK1, 10 mM HEPES (pH 7.5), 150 mM NaCl, 1/1000 SYPRO Orange and 1 mM dithiothreitol. For valsartan, the assay buffer was modified to exclude NaCl. PIFtide or compounds (at a final DMSO concentration of 1%) were added to this reaction mixture. The temperature gradient was performed in steps of 0.3 °C in the range from 25 to 70 °C. To calculate the Tm values, data were exported to GraphPad Prism and curves fitted to a Boltzmann sigmoidal equation with an acceptable confidence interval of 95%. Statistical analysis was performed with Infostat software (http://www.infostat.com.ar) and GraphPad Prism by first verifying a normal distribution of pooled residuals (Shapiro-Wilks test) and homogeneity of variance (F test), and then performing a one-way ANOVA followed by the post hoc comparisons test indicated in each figure legend.

PDK1_1-556 = target: T2, PDK1_1-556 (Homo sapiens, UniProt O15530); test: Differential scanning fluorimetry, thermal stability of PDK1_1-556; format: binding
T2 construct: effect of HYG8 on the thermal stability (ΔTm) of PDK1_1-556 (H) and PDK1_50-359 (I); His (N); made in house; host or cells: Sf9 insect cells (baculovirus)
T2 sequence (O15530 1-556): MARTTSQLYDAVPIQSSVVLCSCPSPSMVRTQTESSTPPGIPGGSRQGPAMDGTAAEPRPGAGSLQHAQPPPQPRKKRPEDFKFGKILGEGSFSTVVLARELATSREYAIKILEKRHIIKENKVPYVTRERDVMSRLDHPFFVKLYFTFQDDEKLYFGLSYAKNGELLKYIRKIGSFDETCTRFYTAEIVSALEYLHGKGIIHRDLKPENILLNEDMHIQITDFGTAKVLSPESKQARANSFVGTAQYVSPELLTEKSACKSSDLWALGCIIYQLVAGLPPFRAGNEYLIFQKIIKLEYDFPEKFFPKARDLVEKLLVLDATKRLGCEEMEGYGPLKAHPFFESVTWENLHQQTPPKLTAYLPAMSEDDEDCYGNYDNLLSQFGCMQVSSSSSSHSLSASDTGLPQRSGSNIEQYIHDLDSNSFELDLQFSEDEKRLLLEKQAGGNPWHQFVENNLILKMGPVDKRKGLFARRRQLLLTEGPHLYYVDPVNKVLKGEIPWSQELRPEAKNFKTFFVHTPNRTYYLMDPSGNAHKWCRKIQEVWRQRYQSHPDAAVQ
Procedure: as §1

PDK1 [2] = target: T3, PDK1 (Homo sapiens, UniProt O15530); test: PDK1 activity assay with T308tide and [γ32P]ATP; format: biochemical; details: isolated catalytic domain
T3 construct: made in house; host or cells: HEK293 (GST fusion) or Sf9 insect cells (His form)
T3 sequence (O15530 1-359): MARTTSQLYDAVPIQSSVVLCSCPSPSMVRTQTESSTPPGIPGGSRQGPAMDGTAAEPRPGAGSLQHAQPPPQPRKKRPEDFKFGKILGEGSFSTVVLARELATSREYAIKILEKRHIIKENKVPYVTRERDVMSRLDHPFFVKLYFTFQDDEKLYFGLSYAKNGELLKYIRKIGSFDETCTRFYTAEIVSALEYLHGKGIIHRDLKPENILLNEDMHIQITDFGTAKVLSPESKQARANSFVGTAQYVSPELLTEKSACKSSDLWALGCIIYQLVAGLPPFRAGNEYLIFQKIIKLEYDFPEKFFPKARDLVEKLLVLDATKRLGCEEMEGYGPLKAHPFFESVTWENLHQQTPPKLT
Procedure: The PDK1 activity assay using T308tide as a substrate was performed essentially as previously described ([18], [28], [54]). In brief, the assay was performed in a 20 μl format containing 50 mM Tris pH 7.5, 0.05 mg/ml BSA, 0.1% ß-mercaptoethanol, 10 mM MgCl2, 100 μM [γ^32P]ATP (5-50 cpm/pmol), 0.003% Brij, 150-500 ng PDK1, and T308tide (0.3 mM) at room temperature. The assay was performed in 96 well plated and stopped by the addition of 5 μl of 0.1 % phosphoric acid. 4 μl aliquots were spotted on p81 phosphocellulose papers (Whatmann) using ep motion 5070 (Eppendorf). The phosphocellulose papers were washed in 0.01% phosphoric acid, dried, and exposed using PhosphoImager (FLA-9000 Starion). Data were analyzed with ImageQuant software (Fujifilm). Activity measurements were performed in technical duplicates or triplicates with less than 10% difference between replicates. Experiments were repeated at least twice. The activity measurements of PDK1 towards GS-022 and GS-023 were performed similarly, with the GS-peptides replacing T308tide at the indicated concentrations. GS-022 and GS-023 have features consistent with the loose characteristics disclosed for the peptide Ser/Thr 07, ((R/K)1-3(X)0-2 (S/T) (X)0-2(R/K)1-3, where X is any residue) used by the commercial “PDK1 Direct” assay.

[3] = target: T4, His-PDK1_1-556 and GST-PDK1_360-556 (Homo sapiens, UniProt O15530); test: AlphaScreen PDK1 dimerization assay His-PDK1_1-556 / GST-PDK1_360-556; format: binding; details: Prestwick library screen hits; read-out: IC50, inhibition of PDK1 dimerization
T4 construct: made in house; host or cells: Sf9 insect cells (His-PDK1_1-556); HEK293 cells (GST-PDK1_360-556)
T4 sequence (O15530 1-556): T2 sequence (O15530 1-556)
Procedure: (§2) The AlphaScreen® assay was performed following the general guidelines from the manufacturer (Perkin Elmer) ([29]). In short, the assay was performed in a final volume of 25 μl in white 384-well microtiter plates (Greiner) in a standard buffer containing 50 mM Tris-HCl (pH 7.4), 100 mM NaCl, 2 mM DTT, 0.01% (v/v) Tween-20 and 0.1% (w/v) BSA, with the addition of 5 μl of beads (anti-GST coated acceptor beads and streptavidin-coated donor beads; nickel chelate-coated acceptor beads and streptavidin-coated donor beads; or nickel chelate-coated acceptor beads and GSH-coated donor beads, 20 μg/ml final concentrations for each bead type). AlphaScreen assays for His-tagged proteins and GST-fusion proteins were performed using nickel chelate-coated acceptor beads and GSH-coated donor beads; alphascreen assays for His-tagged proteins and biotinylated molecules were performed using nickel chelate-coated acceptor beads and streptavidin-coated donor beads; alphascreen assays for GST-fusion proteins and biotinylated molecules were performed using anti-GST coated acceptor beads and streptavidin-coated donor beads (Perkin Elmer).
The conditions for each AlphaScreen assay were identified in cross-titration experiments for each interaction to choose the ideal pair of concentrations within the linear range of the interactions. […] His-PDK1 and GST-fusion protein in the presence or absence of the different compounds were incubated in the dark for 60 min at room temperature and the emission of light from the acceptor beads was measured in an EnVision reader (Perkin Elmer) or Spark plate reader (Tecan). […]

GST-PDK1_1-556 = target: T5, GST-PDK1_1-556 (Homo sapiens, UniProt O15530); test: AlphaScreen GST-PDK1_1-556 / biotin-PIFtide interaction; format: binding
T5 construct: made in house; host or cells: HEK293 cells (transient transfection of pEBG2T); peptide synthesized by Pepscan
T5 sequence (O15530 1-556): T2 sequence (O15530 1-556)
Procedure: as §2
The interaction between GST-PDK1_1-556 and biotin-PIFtide was performed as described previously ([29], [32]) in the standard buffer, but the bead concentration was lowered to 15 μg/ml.

GST-PDK1_(1-556) = target: T6, GST-PDK1_(1-556) (UniProt O15530 1-556); test: AlphaScreen or HTRF; GST-PDK1_(1-556) (150 nM) and biotin-GS-022; anti-GST coated acceptor beads and streptavidin-coated donor beads; standard buffer; with or without HYG8; details: both partners purified
T6 construct: source: HEK293 cells, transient transfection of pEBG2T plasmid, purified, dialyzed to remove GSH
T6 sequence (looked up): T2 sequence (O15530 1-556)

[4] = target: the molecule itself; test: STORM-based single-molecule fluorescence intensity; TMR-Star-labelled SNAP-PDK1 diluted and adsorbed on PDDA-coated slides; 50 mM Tris-HCl pH 7.4, 100 mM NaCl, 1 mM DTT; dimers told from monomers by spot intensity
His-PDK1_(1-556) = target: T7, His-PDK1_(1-556) (UniProt O15530 1-556); test: AlphaScreen or HTRF; His-PDK1_(1-556) and GST-PDK1_(360-556); nickel chelate-coated acceptor beads and GSH-coated donor beads; standard buffer 50 mM Tris-HCl pH 7.4, 100 mM NaCl, 2 mM DTT, 0.01% Tween-20, 0.1% BSA; 60 min at room temperature; details: both partners purified
T7 construct: also called full-length PDK1; PDK1 FL; source: Sf9 insect cells (Bac-to-Bac baculovirus), purified (Ni-NTA, gel filtration); not shown: His, N-terminal, kept; myc, N-terminal, kept
T7 sequence (looked up): T2 sequence (O15530 1-556)

effect on thermal stability of PDK1_50-359 (catalytic domain) (PDK1_50-359): less stabilization
ΔTm at 50 µM (PDK1_1-556; 50 μM, buffer without NaCl): 2.2 °C
effect on temperature stability of the PDK1-HYG8 complex (PDK1_1-556; in presence of HYG8): did not further enhance
effect on activity of the isolated catalytic domain of PDK1 toward T308tide (PDK1 [2]): modestly increased
IC50 [3]: 32 µM
effect on PDK1-PIFtide interaction (GST-PDK1_1-556): inhibited
Molecule: CCCCC(=O)N(Cc1ccc(-c2ccccc2-c2nnn[nH]2)cc1)[C@H](C(=O)O)C(C)C [valsartan, reference compound]

binding result (His-PDK1_(1-556)): binds
B3: GST-PDK1_(360-556) (domain or fragment, UniProt O15530 360-556, looked up)
chain: AYLPAMSEDDEDCYGNYDNLLSQFGCMQVSSSSSSHSLSASDTGLPQRSGSNIEQYIHDLDSNSFELDLQFSEDEKRLLLEKQAGGNPWHQFVENNLILKMGPVDKRKGLFARRRQLLLTEGPHLYYVDPVNKVLKGEIPWSQELRPEAKNFKTFFVHTPNRTYYLMDPSGNAHKWCRKIQEVWRQRYQSHPDAAVQ
notes: Cloned into the BamHI-KpnI sites of pEBG2T; also called GST-PDK1-Linker-PH; GST-linker-PH domain; source: HEK293 cells, transient transfection of pEBG2T plasmid, purified, dialyzed to remove GSH

Further lines, the molecule ahead of its results:

Molecule: O=P(O)(O)OC1C(OCc2ccccc2)C(OP(=O)(O)O)C(OP(=O)(O)O)C(OP(=O)(O)O)C1OP(=O)(O)O (stereo not shown) [2-O-benzyl-IP5]
IC50 (PDK1 [1]): 0.026 µM

B1: biotin-GS-022 (peptide)
peptide: Biotin-RRRQFSLRRKAK
notes: synthetic peptide substrate of PDK1; source: synthetic peptide (Pepscan)
binding result (GST-PDK1_(1-556)): binds

B2: SNAP-PDK1_(50-556) (enzyme, UniProt O15530 50-556, looked up)
chain: AMDGTAAEPRPGAGSLQHAQPPPQPRKKRPEDFKFGKILGEGSFSTVVLARELATSREYAIKILEKRHIIKENKVPYVTRERDVMSRLDHPFFVKLYFTFQDDEKLYFGLSYAKNGELLKYIRKIGSFDETCTRFYTAEIVSALEYLHGKGIIHRDLKPENILLNEDMHIQITDFGTAKVLSPESKQARANSFVGTAQYVSPELLTEKSACKSSDLWALGCIIYQLVAGLPPFRAGNEYLIFQKIIKLEYDFPEKFFPKARDLVEKLLVLDATKRLGCEEMEGYGPLKAHPFFESVTWENLHQQTPPKLTAYLPAMSEDDEDCYGNYDNLLSQFGCMQVSSSSSSHSLSASDTGLPQRSGSNIEQYIHDLDSNSFELDLQFSEDEKRLLLEKQAGGNPWHQFVENNLILKMGPVDKRKGLFARRRQLLLTEGPHLYYVDPVNKVLKGEIPWSQELRPEAKNFKTFFVHTPNRTYYLMDPSGNAHKWCRKIQEVWRQRYQSHPDAAVQ
modifications: SNAP-Cell TMR-Star label on the SNAP-tag
notes: also called TMR-SNAP-PDK1
binding result [4]: binds
